Structures can show the parent of a compound that is named as a salt. Where two headings read alike, the source gives them in different places.
Tests used:
[1] = Stability test of BTG 1640 salts under storage conditions: purity; format: physicochemical; conditions: for Purity %: time 0 (months)
Procedure: Samples of 100 mg each of BTG 1640 hydrochloride were subjected to the following preservation conditions:
The purities were then analyzed periodically, initially every three months, in order to underline possible variations.
Samples of 100 mg each of BTG 1640 oxalate prepared according to example 1B were subjected to the following preservation conditions:
Quarterly and in an overall period of nine months its purity was then analyzed in order to point out possible variations.
The stabilities were then evaluated by subjecting samples of 100 mg of each salt to the following analogous preservation conditions:
Quarterly and in an overall period of nine months their purity was then analyzed in order to underline possible variations.

[2] = Stability test of BTG 1640 salts under storage conditions: total impurities; format: physicochemical; conditions: for Impurity profile (in words): condition d): 40° C./75% RH
Procedure: Contemporaneously, the impurity analysis in the conditions a)-d) of T/% RH were carried out.
As a confirmation of such evidence, a test for the evaluation of the impurity percentage of the sample subjected to the same conditions a)-d) of T/% RH was parallely carried out. The experimental values in Table 4 were obtained.

[3] = Absorption kinetic after oral administration: plasma concentration of BTG 1640; format: in vivo, rats Sprague Dawley; conditions: rat
Procedure: Absorption extent and rate of molecule BTG 1640 in its forms of oxalate and hydrochloride salts were evaluated.
With this intent, the two salts were dispersed in an aqueous suspension of arabic gum at 5% thus obtaining two formulations, each one orally administered through oesophageous gavage at dose of 10 mg/kg (expressed as free base of BTG 1640) to five rats Sprague Dawley.
Plasma concentration of molecule BTG 1640 was determined at different time points (see Table 7).

[4] = test system: female CD-1 mice; test: Acute oral toxicity; format: in vivo; conditions: for Clinical signs / Histopathological examination of kidneys: female CD-1 mice
Procedure: Acute oral toxicity of salts hydrochloride and oxalate of BTG-1640 was evaluated.
The two salts were dispersed in an aqueous suspension, thus obtaining two formulations, each one orally administered through oesophageous gavage at dose of 2000 mg/kg bw (expressed as free base of BTG 1640) to one of two groups comprising three female CD-1 mice per group.
The observation lasted 14 days.

[5] = T = 25° C., humidity 60% RH, time 0 (months)
[6] = T = 30° C., humidity 65% RH, time 0 (months)
[7] = T = 40° C., humidity 75% RH, time 0 (months)
[8] = Sprague Dawley, in vivo, po, 10 mg/kg
[9] = 2000 mg/kg bw oral (as free base)
[10] = condition d): 40° C./75% RH, up to six months

| SMILES | Stability compared with BTG 1640 hydrochloride (in words) ([1]; conditions a)-d)) | % impurities [2, 5] | % impurities [2, 6] | % impurities ([2]; T = 5° C., time 0 (months)) | % impurities [2, 7] | Impurity profile (in words) [2] | Clinical signs [4, 9] | Histopathological examination of kidneys [4, 9] | Stability (in words) [1, 10] | further results |
| --- | --- | --- | --- | --- | --- | --- | --- | --- | --- | --- |
| CN1OC2CCCC(=O)C2C1Cc1ccccc1.O=C(O)CCC(=O)O (stereo not drawn) [BTG 1640 succinate] | even worse | 0.77% | 0.77% |  |  |  |  |  |  | Stability (in words) ([1]; all observation conditions a)-d), from the third month): shows degradation |
| CN1OC2CCCC(=O)C2C1Cc1ccccc1.CS(=O)(=O)O (stereo not drawn) [BTG 1640 methanesulphonate] | even worse | 0.42% | 0.42% |  |  |  |  |  |  | Stability (in words) ([1]; conditions b)-d)): begins to degrade already after three months |
| CN1OC2CCCC(=O)C2C1Cc1ccccc1 [BTG 1640 oxalate, oxalate salt of rel-(3R,3aS,7aS)-3-benzyl-2-methyl-2,3,3a,4,5,6,7,7a-octahydrobenzo[d]isoxazol-4-one] |  | 0.27% | 0.27% | 0.27% | 0.27% | invariable impurity profile | quickly reversible neurological signs | focal and moderate balloon degeneration of the epithelium in convoluted tubules |  | Stability compared with BTG 1640 hydrochloride (in words) [1]: higher stability; Purity % ([1]; T = 5° C.): 99.7%; Purity % ([1]; T = 25° C., humidity 60% RH): 99.7%; Purity % ([1]; T = 30° C., humidity 65% RH): 99.7%; Purity % ([1]; T = 40° C., humidity 75% RH): 99.7%; % impurities ([2]; T = 5° C., time 3 (months)): 0.33%; % impurities ([2]; T = 5° C., time 9 (months)): 0.29%; % impurities ([2]; T = 25° C., humidity 60% RH, time 3 (months)): 0.30%; % impurities ([2]; T = 30° C., humidity 65% RH, time 3 (months)): 0.28%; concentration at 2 minutes [3, 8]: 2050 ng/mL; concentration at 5 minutes [3, 8]: 1870 ng/mL; concentration at 30 minutes [3, 8]: 390 ng/mL; concentration at 300 minutes [3, 8]: 0 ng/mL; Absorption compared with hydrochloride (in words) ([3]; in vivo, po, 10 mg/kg): higher absorption; Toxicity compared with hydrochloride (in words) ([4]; 2000 mg/kg bw oral, female mice): less toxic |
| CN1OC2CCCC(=O)C2C1Cc1ccccc1.Cl (stereo not drawn) [BTG 1640 hydrochloride, reference compound] |  | 0.36% | 0.36% | 0.36% | 0.36% | unacceptable percentage of impurities | Lethargy, ataxia, aggressiveness and vocalization | small foci of acute tubular necrosis in the cortex, balloon degeneration of the epithelium and dilatation of convoluted tubules | strong instability | Stability (in words) ([1]; conditions a)-c): 5° C., 25° C./60% RH, 30° C./65% RH, 12 months): good stability; Validity time period ([1]; indicated on the basis of the stability results, preserved at 2-8° C.): 12 months; BTG 1640 free base concentration in plasma ([3]; oral gavage 10 mg/kg (as free base), 5% arabic gum suspension, 300 minutes): 0 µg/mL; Lethality ([4]; 2000 mg/kg bw oral (as free base), three female CD-1 mice, 14 days observation): lethal in two animals out of three |
| CN1OC2CCCC(=O)C2C1Cc1ccccc1.O=C(O)/C=C\C(=O)O (stereo not drawn) [BTG 1640 maleate] | even worse | 0.23% | 0.23% |  |  |  |  |  | degrades in unacceptable way | Stability (in words) ([1]; condition c) 30° C./65% RH, at sixth month): considerable degradation; Stability (in words) ([1]; conditions a) and b)): acceptable profile |
